Reference: patent US8906430B2, “Use of hypericum perforatum extracts in the treatment of neuropathic pain” (Aboca S.p.A. Societa' Agricola, priority 2008, dated 2014)

Tests used:
[1] = system: mononeuropathy induced by ligature of the sciatic nerve; experiment: Right-side mononeuropathy induced by ligature of the sciatic nerve, rat paw pressure test; assay type: in vivo; parameters: unit not given beside the values; conditions: 0.11 mg/kg p.o.
Procedure: Neuropathic pain is characterised by the development of an altered perception of pain, which is manifested as continuous spontaneous pain and hyperalgesia. In this model, the rats were anaesthetised with chloral hydrate 400 mg/kg i.p. or sodium pentobarbital 40 mg/kg i.p. The sciatic nerve was then exposed at thigh level by retracting the femoral biceps. Proximally to the trifurcation of the sciatic nerve, approx. 7 mm of nerve was released from the membranes and 4 loose ligatures were tied round the nerve, approx. 1 mm apart. In another group of animals an identical incision was made, but without the nerve ligature (sham operation). Neuropathy developed in 14 days. The tests with the potentially analgesic substances were performed on the 14th and 21st days after the operation using the paw pressure test (ref. 24).
Using the same method as in Example 2, the following results were obtained by administering hypericin at the doses indicated in Table 6.

neuropathic pain = experiment: Experimental models of neuropathic pain (summary statements); assay type: in vivo, rodents; conditions: for Ability to reduce neuropathic pain: isolated phloroglucinol derivatives
Procedure: The studies were conducted on rodents, which have always constituted a good animal model to reproduce the characteristics of human pain symptoms and predict possible remedies.

[2] = system: oxaliplatin-induced hyperalgesia; experiment: Oxaliplatin-induced hyperalgesia, rat paw pressure test; assay type: in vivo; conditions: oxaliplatin i.p., hypericin 0.11 mg/kg + CMC p.o., single administration
Procedure: A reduction in the pain threshold was induced by administering oxaliplatin 2.4 mg/kg for 5 consecutive days for a total of 3 weeks. By the end of the treatment period, the pain perception threshold of the rats was statistically lower than that of the controls (Ref. 23). Using the same method as in Example 1, the following results were obtained by administering hypericin at the doses indicated in Table 5.

[3] = system: monosodium iodoacetate-induced osteoarthritis pain; experiment: Pain caused by monosodium iodoacetate-induced osteoarthritis of the knee, rat paw pressure test; assay type: in vivo; conditions: MIA, 0.11 mg/kg p.o.
Excerpt: The reduction in the pain threshold was induced by a single administration of monoiodoacetate (MIA) into the […] of the rat (Ref. 27). [table]

## Cc1cc(O)c2c(=O)c3c(O)cc(O)c4c5c(O)cc(O)c6c(=O)c7c(O)cc(C)c8c1c2c(c34)c(c78)c65 [HYPERICIN, hypericin]
[1]; paw L, 4 min after treatment
  Rat paw pressure test (Paw): 24.8 ± 3.9
[1]; paw L, 15 min after treatment
  Rat paw pressure test (Paw): 23.8 ± 3.3
[1]; paw L, 30 min after treatment
  Rat paw pressure test (Paw): 22.7 ± 2.1
[1]; paw L, 60 min after treatment
  Rat paw pressure test (Paw): 21.5 ± 3.0
[1]; paw L, before treatment
  Rat paw pressure test (Paw): 21.6 ± 2.7
[1]; paw R, 4 min after treatment
  Rat paw pressure test (Paw): 41.6 ± 2.7
[1]; paw R, 15 min after treatment
  Rat paw pressure test (Paw): 28.1 ± 1.2
[1]; paw R, 30 min after treatment
  Rat paw pressure test (Paw): 43.7 ± 2.0
[1]; paw R, 60 min after treatment
  Rat paw pressure test (Paw): 25.9 ± 2.2
[1]; paw R, before treatment
  Rat paw pressure test (Paw): 24.3 ± 4.6
Neuropathic pain; at a dose corresponding to its concentration in freeze-dried extracts
  Activity on neuropathic pain: active
[2]; 3rd week + 15 min
  Pressure on rats' paws: 44.1 ± 2.8 g
[2]; 3rd week + 30 min
  Pressure on rats' paws: 55.0 ± 2.2 g
[2]; 3rd week + 45 min
  Pressure on rats' paws: 53.3 ± 2.6 g
[2]; 3rd week + 60 min
  Pressure on rats' paws: 31.3 ± 3.0 g
[2]; 3rd week Pre-test
  Pressure on rats' paws: 32.4 ± 2.0 g
[2]; Pre-test before all treatments
  Pressure on rats' paws: 63.2 ± 3.5 g
[3]; 15 min after treatment
  Rat paw pressure test: 45.9 ± 2.7
[3]; 30 min after treatment
  Rat paw pressure test: 49.7 ± 3.8
[3]; 45 min after treatment
  Rat paw pressure test: 42.8 ± 3.9
[3]; 60 min after treatment
  Rat paw pressure test: 31.7 ± 3.5
[3]; Pre-test
  Rat paw pressure test: 23.4 ± 3.3

## CCC(C)C(=O)[C@@]12C(=O)C(CC=C(C)C)=C(O)[C@@](CC=C(C)C)(C[C@H](CC=C(C)C)[C@@]1(C)CCC=C(C)C)C2=O (stereo partly drawn) [adihyperforin]
Neuropathic pain
  Ability to reduce neuropathic pain: unable to reduce neuropathic pain

## CC(C)=CCC[C@]1(C)[C@@H](CC=C(C)C)C[C@@]2(CC=C(C)C)C(=O)[C@]1(C(=O)C(C)C)C(=O)C(CC=C(C)C)=C2O [hyperforin]
Neuropathic pain
  Ability to reduce neuropathic pain: unable to reduce neuropathic pain
